Data on 26 compounds can be found in US6046235A, “Sulfur-containing amino acid derivatives” (Santen Pharmaceutical Co., Ltd., priority 1996, dated 2000).

The structures appear in SMILES notation.

This assay concerns the target T1, LTA4 hydrolase (Cavia porcellus, UniProt P19602).
T1 construct: Lungs were excised from a Hartley guinea pig; from tissue; host or cells: Hartley guinea pig lung, 100,000×g supernatant, 40-70% ammonium sulfate fraction, dialyzed
T1 sequence (P19602 1-611): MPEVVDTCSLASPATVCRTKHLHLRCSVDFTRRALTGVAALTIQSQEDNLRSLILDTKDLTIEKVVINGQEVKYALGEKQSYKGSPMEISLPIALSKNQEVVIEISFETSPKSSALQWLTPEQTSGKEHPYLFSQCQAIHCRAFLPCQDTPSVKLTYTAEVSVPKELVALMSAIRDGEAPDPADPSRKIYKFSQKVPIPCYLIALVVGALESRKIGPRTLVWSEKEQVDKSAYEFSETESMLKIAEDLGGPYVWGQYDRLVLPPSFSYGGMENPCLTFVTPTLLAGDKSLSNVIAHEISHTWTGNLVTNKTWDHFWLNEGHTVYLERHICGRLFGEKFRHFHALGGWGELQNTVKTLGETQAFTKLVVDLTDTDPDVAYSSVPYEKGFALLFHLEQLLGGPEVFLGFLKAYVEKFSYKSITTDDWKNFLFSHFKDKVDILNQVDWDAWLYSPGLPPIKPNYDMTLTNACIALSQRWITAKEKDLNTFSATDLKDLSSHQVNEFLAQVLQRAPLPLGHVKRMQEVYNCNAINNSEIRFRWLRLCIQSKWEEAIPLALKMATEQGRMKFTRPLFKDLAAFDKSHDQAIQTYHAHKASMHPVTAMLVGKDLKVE
Description: LTA4 hydrolase inhibition (LTB4 formed from LTA4, guinea pig lung enzyme preparation). Type of assay: biochemical. The conditions noted are these: Table 2; guinea pig lung enzyme preparation; LTA4 63 μM; 37° C., one minute; pH 7.8; read-out: IC50 (concentration required to inhibit LTA4 hydrolase by 50%). As for the experimental part: Effects of the present compounds on LTA4 hydrolase were examined according to the method described in the literature.
Lungs were excised from a Hartley guinea pig (body weight: 330 g). The lungs were homogenized in phosphoric acid buffer (50 mM, pH 7.4, containing 1 mM ethylenediaminetetraacetic acid (EDTA) and 1 mM dithiothreitol (DTT) having weight three times that of the lungs under ice-cooling. The homogenate was centrifuged at low speed (800×g) for 20 minutes, centrifuged at high speed (10,000×g) for 20 minutes and ultracentrifuged (100,000×g) for 60 minutes to give a supernatant. The supernatant was brought to 40% saturation by adding a saturated aqueous ammonium sulfate solution (pH 7.0-7.2, containing 1 mM DTT) dropwise under ice-cooling and centrifuged at high speed (10,000×g) for 20 minutes. The resulting supernatant was brought to 70% saturation by adding a saturated aqueous ammonium sulfate solution (pH 7.0-7.2, containing 1 mM DTT) dropwise and centrifuged at high speed (10,000×g) for 20 minutes. The obtained pellet was dissolved in 2 ml of Tris-acetic acid buffer (20 mM, pH 7.8, containing 1 mM DTT) and dialyzed in 2 liters of the solution to give the enzyme preparation.
LTA4 used, which is the substrate, was prepared by hydrolyzing LTA4 methyl ester and dissolved in ethanol.
In order to examine effects of the present compounds on the enzyme preparation, reactions were performed under the following condition using mixed solutions consisting of the composition shown in Table 1.
HEPES buffer 50 mM, pH 7.8
Enzyme preparation 0.4-0.6 mg protein
Aqueous DTT solution 3 mM
The above-mentioned solution (50 μl ) was incubated at 37° C. for one minute. To the reaction mixture was added 100 μl of a mixed liquid of acetonitrile-ethanol-acetic acid (150:50:3, volume ratio) under ice-cooling. The mixture was allowed to stand at -20° C. for 30 minutes and centrifuged at high speed (10,000×g) for five minutes to give a supernatant. An amount of LTB4 produced in the supernatant was measured by high-speed liquid chromatography.
The degree of the inhibitory effect of each test compound on LTA4 hydrolase is expressed by the inhibition rate calculated by the following equation. [formula]
A: amount of LTB4 formed in the absence of the test compound
B: amount of LTB4 formed in the presence of the test compound
Experiments were carried out under the same conditions as those of the above-mentioned "Pharmacological Test".
As for `CCc1ccc(CSC[C@H](NC(=O)[C@H](C)CSC(=O)c2ccccc2)C(=O)O)cc1` [Compound No. 1-8, (2R)-2-[(2S)-3-(Benzoylthio)-2-methylpropionylamino]-3-(4-ethylbenzylthio)propionic acid], the IC50 worked out at 120 nM. Then `CCCc1ccc(CSC[C@H](NC(=O)[C@H](C)CSC(=O)c2ccccc2)C(=O)O)cc1` [Compound No. 1-9, (2R)-2-[(2S)-3-(Benzoylthio)-2-methylpropionylamino]-3-(4-propylbenzylthio)propionic acid], with 170 nM; and `CC(C)c1ccc(CSC[C@H](NC(=O)[C@H](C)CSC(=O)c2ccccc2)C(=O)O)cc1` [Compound No. 1-10, (2R)-2-[(2S)-3-(Benzoylthio)-2-methylpropionylamino]-3-(4-isopropylbenzylthio)propionic acid], with 120 nM; and `C[C@H](CSC(=O)c1ccccc1)C(=O)N[C@@H](CSCc1ccc(C(C)(C)C)cc1)C(=O)O` [Compound No. 1-11, (2R)-2-[(2S)-3-(Benzoylthio)-2-methylpropionylamino]-3-(4-tert-butylbenzylthio) propionic acid], with 32 nM.

For `C[C@H](CSC(=O)c1ccccc1)C(=O)N[C@@H](CSCc1ccc(C(F)(F)F)cc1)C(=O)O` [Compound No. 1-13, (2R)-2-[(2S)-3-(Benzoylthio)-2-methylpropionylamino]-3-(4-trifluoromethylbenzylthio)propionic acid], the IC50 came to 100 nM. Then `CSc1ccc(CSC[C@H](NC(=O)[C@H](C)CSC(=O)c2ccccc2)C(=O)O)cc1` [Compound No. 1-16, (2R)-2-[(2S)-3-(Benzoylthio)-2-methylpropionylamino]-3-(4-methylthiobenzylthio)propionic acid], with 110 nM; and `C[C@H](CSC(=O)c1ccccc1)C(=O)N[C@@H](CSCc1ccc(OC(F)(F)F)cc1)C(=O)O` [Compound No. 1-18, (2R)-2-[(2S)-3-(Benzoylthio)-2-methylpropionylamino]-3-(4-trifluoromethoxybenzylthio)propionic acid], with 100 nM. `C[C@H](CSC(=O)c1ccccc1)C(=O)N[C@@H](CSCc1ccc(Cl)cc1)C(=O)O` [Compound No. 1-23, (2R)-2-[(2S)-3-(Benzoylthio)-2-methylpropionylamino]-3-(4-chlorobenzylthio)propionic acid]: the IC50 turned out to be 300 nM.

Turning to `C[C@H](CSC(=O)c1ccccc1)C(=O)N[C@@H](CSCc1ccc(Br)cc1)C(=O)O` [Compound No. 1-24, (2R)-2-[(2S)-3-(Benzoylthio)-2-methylpropionylamino]-3-(4-bromobenzylthio)propionic acid], the IC50 amounted to 310 nM. As to `C[C@H](CSC(=O)c1ccccc1)C(=O)N[C@@H](CSCc1ccc(I)cc1)C(=O)O` [Compound No. 1-25, (2R)-2-[(2S)-3-(Benzoylthio)-2-methylpropionylamino]-3-(4-iodobenzylthio)propionic acid], the IC50 is 51 nM. For `C[C@H](CSC(=O)c1ccccc1)C(=O)N[C@@H](CSCc1ccc(S(C)(=O)=O)cc1)C(=O)O` [Compound No. 1-26, (2R)-2-[(2S)-3-(Benzoylthio)-2-methylpropionylamino]-3-(4-methylsulfonylbenzylthio)propionic acid], the IC50 was 200 nM. Then `C[C@H](CSC(=O)c1ccccc1)C(=O)N[C@@H](CSCc1ccc([N+](=O)[O-])cc1)C(=O)O` [Compound No. 1-28, (2R)-2-[(2S)-3-(Benzoylthio)-2-methylpropionylamino]-3-(4-nitrobenzylthio)propionic acid], with 290 nM; and `CCc1ccc(CSC[C@H](NC(=O)[C@H](C)CS)C(=O)O)cc1` [Compound No. 2-8, (2R)-3-(4-Ethylbenzylthio)-2-[(2S)-3-mercapto-2-methylpropionylamino]propionic acid], with 280 nM. As to `CCCc1ccc(CSC[C@H](NC(=O)[C@H](C)CS)C(=O)O)cc1` [Compound No. 2-9, (2R)-2-[(2S)-3-Mercapto-2-methylpropionylamino]-3-(4-propylbenzylthio)propionic acid], the IC50 amounted to 72 nM.

As for `CC(C)c1ccc(CSC[C@H](NC(=O)[C@H](C)CS)C(=O)O)cc1` [Compound No. 2-10, (2R)-3-(4-Isopropylbenzylthio)-2-[(2S)-3-mercapto-2-methylpropionylamino]propionic acid], the IC50 is 200 nM. Then `C[C@H](CS)C(=O)N[C@@H](CSCc1ccc(C(C)(C)C)cc1)C(=O)O` [Compound No. 2-11, (2R)-3-(4-tert-Butylbenzylthio)-2-[(2S)-3-mercapto-2-methylpropionylamino]propionic acid], with 24 nM; and `CC(CS)C(=O)N[C@@H](CSCc1ccc(C(C)(C)C)cc1)C(=O)O` (stereo partly drawn) [Compound No. 2-12, (2R)-3-(4-tert-Butylbenzylthio)-2-[(2RS)-3-mercapto-2-5 methylpropionylamino]propionic acid], with 58 nM; and `C[C@H](CS)C(=O)N[C@@H](CSCc1ccc(C(F)(F)F)cc1)C(=O)O` [Compound No. 2-13, (2R)-2-[(2S)-3-Mercapto-2-methylpropionylamino]-3-(4-trifluoromethylbenzylthio)propionic acid], with 140 nM. Next, `CSc1ccc(CSC[C@H](NC(=O)[C@H](C)CS)C(=O)O)cc1` [Compound No. 2-16, (2R)-2-[(2S)-3-Mercapto-2-methylpropionylamino]-3-(4-methylthiobenzylthio)propionic acid]: 46 nM; `C[C@H](CS)C(=O)N[C@@H](CSCc1ccc(I)cc1)C(=O)O` [Compound No. 2-25, (2R)-3-(4-Iodobenzylthio)-2-[(2S)-3-mercapto-2-methylpropionylamino]propionic acid]: 15 nM; `C[C@H](CS)C(=O)N[C@@H](CSCc1ccc(S(C)(=O)=O)cc1)C(=O)O` [Compound No. 2-26, (2R)-2-[(2S)-3-Mercapto-2-methylpropionylamino]-3-(4-methylsulfonylbenzylthio)propionic acid]: 160 nM. Then `CC(C)c1ccc(C(C)SC[C@H](NC(=O)[C@H](C)CS)C(=O)O)cc1` (stereo partly drawn) [Compound No. 2-30, (2R)-2-[(2S)-3-Mercapto-2-methylpropionylamino]-3-[(α-methyl-4-isopropyl)benzylthio]propionic acid], with 55 nM. Consider `CC(C)c1ccc(C(C)(C)SC[C@H](NC(=O)[C@H](C)CS)C(=O)O)cc1` [Compound No. 2-32, (2R)-2-[(2S)-3-Mercapto-2-methylpropionylamino]-3-[(α,α-dimethyl-4-isopropyl)benzylthio]propionic acid], for which the IC50 was determined as 25 nM. With `CCC(SC[C@H](NC(=O)[C@H](C)CS)C(=O)O)c1ccc(C(C)C)cc1` (stereo partly drawn) [Compound No. 2-33, (2R)-3-[(α-Ethyl-4-isopropyl)benzylthio]-2-[(2S)-3-mercapto-2-methylpropionylamino]propionic acid], the IC50 stood at 67 nM. Then `CC(SC[C@H](NC(=O)[C@H](C)CS)C(=O)O)c1ccc(C(C)(C)C)cc1` (stereo partly drawn) [Compound No. 2-34, (2R)-3-[(4-tert-Butyl-α-methyl)benzylthio]-2-[(2R)-3-mercapto-2-methylpropionylamino]propionic acid], with 68 nM. Then `C[C@H](CS)C(=O)N[C@@H](CSCc1ccc(C2CCCCC2)cc1)C(=O)O` [Compound No. 2-35, (2R)-3-(4-Cyclohexylbenzylthio)-2-[(2S)-3-mercapto-2-methylpropionylamino]propionic acid], with 79 nM.
